Measurements as given in patent US7638554B2, “Flavanoids as chemotherapeutic, chemopreventive, and antiangiogenic agents” (SRI International, priority 2002, dated 2009).

Experiments:
[1] = system: MCF-7 human breast carcinoma cells; assay: Cell cycle analysis in MCF-7 cells; assay type: cell-based; settings: 1 μM, 24 h
[2] = system: membrane-type 1 MMP (MT1-MMP); assay: MT1-MMP protein expression, MCF-10-CA1a cells; assay type: cell-based, human
Excerpt: (§1) Western Blotting. Proteins were separated by gel electrophoresis using 4-12% pre-cast SDS-polyacrylamide gels (Invitrogen, Carlsbad, Calif.) and then electrophoretically transferred onto Hybond™-P membrane (Amersham Biosciences, Piscataway, N.J.). Blots were probed with specific antibodies (Santa Cruz Biotechnology, Inc). The ECL Plus Western Blotting Detection System of Amersham Biosciences (Piscataway, N.J.) and the procedure recommended by the manufacturer was used for the detection of antigens. Protein bands were quantified by analyzing the images obtained using an Alphaimager™ S-3400 (Alpha Innotech Corp., San Leandro, Calif.).
(§2) The effects of SR 13179 on the protein expression of TIMP-1, TIMP-2, and membrane-type 1 MMP (MT1-MMP) were studied. SR13179 induced the protein expression of TIMP-2 in a dose- and time-dependent manner. MCF-10-CA1a cells were treated with SR 13179 at 1, 3, or 5 μM concentrations for 48 h, or, alternatively, with […] SR 13179 for 8, 24, or 48 h. Cells were lysed and subjected to Western blotting.
The effect of SR13179 on the extracellular levels of TIMP-2 as well as MMP-2 was also investigated. Treatment of MCF-10CA1a cells with SR13179 at 5 μM concentration caused 5- to 8-fold increase in the secreted level of TIMP-2 and a 2-fold decrease in the extracellular level of MMP-2. […]

MMP-2 (gelatinase) = assay: Zymography of MMP-2 activity in supernatants of MCF-10-CA1a cultures; assay type: cell-based, human; settings: 5 μM, 48 h, serum-free medium
Method: Zymography. Zymography as used herein is illustrated by the following general procedure. MCF10CA1a cells were grown in 100 mm in diameter tissue culture plates until 90% confluent. The cells were washed once with serum-free medium and placed in serum-free medium for 2 h prior to drug treatment. The candidate agent was added to the plate and the plate was incubated in the 5% CO2 incubator at 37° C. for 16 h. The medium was collected, concentrated and subjected to zymography. In brief, 10 μl of the sample was electrophoresed in 8% polyacrylamide gel containing 0.1% gelatin in the presence of SDS. After electrophoresis, gel was washed two times, 20 min each, in 2.5% Triton X-100 and incubated overnight at 37° C. in a solution containing 50 mM Tris-HCl, pH 8, 5 mM CaCl2, 10 mM ZnCl2 and 0.02% NaN3. The gel was then stained for 30 min with 0.5% Coomassie Brilliant Blue R-250 prepared in 30% methanol/10% acetic acid solution and destained with several washes with water.
The effect of SR 13179 on the activity of MMP-2 (gelatinase) was studied. MCF-10-CA1a cells were treated with 1, 3, and 5 μM SR 13179 in serum-free medium for 48 h. Untreated cells, grown under the same conditions, were used as control. After treatment, supernatants of the cultures were concentrated and subjected to zymography.

[3] = system: LNCaP human prostate cancer cells; assay: Cell cycle arrest in LNCaP cells (Hoechst 33258 nuclear morphology, flow cytometry); assay type: cell-based
Method: To determine whether SR 13179 exerts its antiproliferative activity by perturbing the cell cycle, the nuclear morphology of LNCaP cells was visualized after treatment with SR 13179. The cells were exposed to the compound for 28 h at concentrations of either 0.5 μM or 1 μM and then stained with the nuclear dye Hoechst 33258.
To investigate the mitotic arrest in more detail, flow cytometry was used to study the effect of SR 13179 on cell cycle progression for LNCaP cells.

TIMP-2 = assay: Western blotting of TIMP-2 protein expression, MCF-10-CA1a cells; assay type: cell-based, human
Excerpt: as §1, §2

[4] = system: MDA-MB-231 breast cancer cells; assay: Boyden-chamber Matrigel invasion/migration assay, MDA-MB-231; assay type: cell-based, human
Method: Cell Culture. MCF-10CA1a cells were cultured in Dulbecco's Modified Eagle Medium (DMEM) supplemented with 5% bovine serum, 2 mM glutamine and 1 mM non-essential amino acids. MDA-MB231 cells were grown in DMEM supplemented with 5% bovine serum. Cells were routinely maintained in a 5% CO2 incubator at 37° C.
General Procedure for Invasion Assay. MCF 10-CA1a or MDA-MB-231 breast cancer cells were treated with 1 or 5 μM of the compound being tested for 8 h. Cells were removed by trypsinizing and tested for their invasiveness by Boyden-chamber invasion assay. In the in vitro invasion/migration assays, a standard Matrigel-based assay, according to the manufacturer's (Becton-Dickinson) protocol, was used. Rehydrated Matrigel and control inserts were added to Falcon TC companion plates containing human fibronectin (30 μg/ml) as chemoattractant. Cellular suspensions (2×10^4 cells/0.5 ml) were added to individual wells of 24-well chambers (containing either control or Matrigel inserts), and the plates incubated (37° C., 5% CO2) in the presence of the compound being tested or vehicle for an additional 16-18 h. Non-invading or non-migrating cells were removed by scraping the top surfaces of the Matrigel and control inserts, respectively. The invading (or migrating) cells (on the bottom surface) were fixed (3.7% formaldehyde) and stained with Accustain (Sigma). The percent invasion was calculated as mean number of invading cells/the mean number of cells migrating through a control membrane×100.
The in vitro invasion through Matrigel was studied for two human breast cancer lines: MCF-10CA1a, a highly metastatic ER^+ line and MDA-MB-231, an ER^− line. […] At this concentration, SR13179 inhibited invasion of MDA-MB-231 by about 30% (and by 70% at 5 μM). To rule out a cytotoxic effect in the inhibition of invasion, a concurrent cytotoxicity assay was carried out and the number of viable cells was determined by MTT assay. There was less than 5% decrease in MDA-MB-231 cell viability at 5 μM concentration of SR13179 at 22 h. In the same experiment, a motility experiment was conducted, showing that cell migration was inhibited by about 20%.

MMP-2 = assay: Extracellular level of MMP-2, MCF-10CA1a cells; assay type: cell-based, human; settings: 5 μM
Method: The effect of SR13179 on the extracellular levels of TIMP-2 as well as MMP-2 was also investigated. Treatment of MCF-10CA1a cells with SR13179 at 5 μM concentration caused 5- to 8-fold increase in the secreted level of TIMP-2 and a 2-fold decrease in the extracellular level of MMP-2. However, extracellular TIMP-2 protein was always associated with MMP-2 protein, even after the samples were boiled for 10 min and separated under the denaturing conditions of gel electrophoresis.

COc1cc(C2CC(O)c3ccc4ccccc4c3O2)cc(OC)c1OC (centres unmarked) [SR 13179, 2-(3,4,5-trimethoxyphenyl)-3,4-dihydro-2H-benzo[h]chromen-4-ol]
hypodiploid (sub G1) fraction compared with untreated control [1]: nearly three-fold increase | MT1-MMP protein levels [2]: no significant effect | inhibition of MMP-2 activity (MMP-2 (gelatinase)): > 50% | nuclear morphology (Hoechst 33258) ([3]; 0.5 μM or 1 μM, 28 h): chromatin condensation characteristic of a prometaphase arrest | G2/M fraction compared with the control ([3]; 2 μM and greater, 24 h, flow cytometry): two-fold increase | Level of TIMP-2 Protein (TIMP-2; 1 μM, 48 h): 6.8 | Level of TIMP-2 Protein (TIMP-2; 3 μM, 48 h): 14.6 | Level of TIMP-2 Protein (TIMP-2; 5 μM, 48 h): 16.2 | Level of TIMP-2 Protein (TIMP-2; 8 h, 5 mM SR 13179): 7.9 | Level of TIMP-2 Protein (TIMP-2; 24 h, 5 mM SR 13179): 14.5 | Level of TIMP-2 Protein (TIMP-2; 48 h, 5 mM SR 13179): 15.9 | Invasion (%) ([4]; 1 μM): 60% | Invasion (%) ([4]; 5 μM): 25% | inhibition at 1 µM ([4]; Homo sapiens, MDA-MB-231, 1 μM): ~30% | inhibition at 5 µM ([4]; Homo sapiens, MDA-MB-231, 5 μM): 70% | inhibition of cell migration (motility experiment) ([4]; same experiment as the cytotoxicity assay): about 20% | decrease in the extracellular level of MMP-2 (MMP-2): 2 fold
